The test addresses T1, BCL2A1 (A1) - NOXA binding (Mus musculus, UniProt Q07440, C113S/P104K).
T1 construct: A1 residues 1-152 (P104K, C113S) were expressed in the BL21 strain of Escherichia coli; hexa-His-MBP (cleaved yes); made in house; host or cells: Escherichia coli BL21
T1 sequence (Q07440 1-152 P104K/C113S): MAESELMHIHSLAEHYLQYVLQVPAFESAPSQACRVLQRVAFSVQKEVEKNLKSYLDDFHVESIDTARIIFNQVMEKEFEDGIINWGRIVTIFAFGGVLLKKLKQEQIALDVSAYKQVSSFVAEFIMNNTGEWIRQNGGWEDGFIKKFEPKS
Briefly: Competition fluorescence polarization assay, displacement of FITC-labeled mNOXA peptide from A1. Conditions: for inhibition of NOXA binding in combination: with NSC-15508. The method, then:
Representative compounds were additionally tested for inhibition of BH3 binding through competition-based fluorescence polarization (FP) assays. These assays were carried out using fluorescently labeled NOXA peptide which binds within the BH3-binding groove. The FP assay measures the tumbling rate of the labeled NOXA peptide. When NOXA is bound to A1, its rate of tumbling is low (and FP is high), whereas an effective inhibitor compound will displace NOXA, causing a fast rate of tumbling (and low FP value). Initially, a single high-dose experiment was performed with each compound using 100 μM of compound with BCL2A1 and FITC-NOXA, to observe the relative inhibition of the A1-NOXA interaction (FIG. 17B).
These compounds and any that were three standard deviations or more above the thermal shift controls in the DSF assays, along with those that were initially derived from early compounds with reasonable IC50 values, were tested in a dose-response experiment. To this end, 30 putative P2 inhibitors and 44 putative P4 inhibitors had their IC50 values determined. Of the dose responses, there was a surprising enrichment of putative P4 inhibitors among those that had IC50 values less than 50 μM. […] The following linear equation was used in the calculations (Tallarida et al., 2011),
Compounds were additionally tested for specificity of binding by displacement of FITC-labeled mouse NOXA (mNoxa; Peptide 2.0) peptide via fluorescence polarization assay (FP). FP assays were performed in two steps: single-point high-concentration compounds and dose response of fluorescence polarization hits. A1 was added at 3 μM to 100 μM of each compound in 20 mM Tris pH 7, 500 mM NaCl, 0.005% Tween-20 buffer. After addition of 375 nM labeled mNOXA, 96-well plates were incubated overnight at 20° C. in the dark to achieve equilibrium before fluorescence polarization was measured with a Biotek Synergy H2. Autofluorescent compounds and fluorescent quenching compounds were corrected via ratiometric correction as described by Shapiro et al., 2009.
Dose response curves were measured by adding 3 μM A1 to a serial two-fold dilution series of each compound ranging from 400 μM to 781 nM in 20 mM Tris pH 7, 500 mM NaCl, 0.005% Tween-20 buffer. Some compounds were further tested to assess the accuracy of these two-fold dilutions with serial 1.33-fold dilutions. A1, compounds, buffer and lastly, 375 nM FITC-labeled mNOXA were added to each well and incubated in the dark at 20° C. overnight to achieve equilibrium, followed by measurement of polarization. All dose responses were performed in triplicate.
Background: Fluorescence polarisation rises when a labelled molecule tumbles more slowly, as on binding a larger partner.

Each structure is given as a SMILES string. Where two headings read alike, the source gives them in different places.

As usually defined, the IC50 is the point on the concentration scale where inhibition reaches its midpoint. As for `Cc1cc(N)ccc1/N=N/c1ccc(/N=N/c2ccc3cc(S(=O)(=O)O)cc(S(=O)(=O)O)c3c2)c(C)c1` [Compound 1.002], the IC50 by setting is: (P4 inhibitor 79711 in combination with P2 inhibitor 97318, read-out: IC50 upon P2 and P4 ligand binding) 6.3 µM; (compound alone, inhibition of A1-NOXA binding, read-out: IC50) 17.1 µM.

For the compound `Cc1cc(O)ccc1/N=N/c1ccc2cc(S(=O)(=O)O)cc(S(=O)(=O)O)c2c1` [Compound 1.003], the “inhibition of NOXA binding in combination” value is “cooperative inhibition”. In addition, the “additivity for inhibition of A1-Noxa binding, checkerboard assay” value (NSC-97318 (P2) with NSC-45195 (P4), wide range of concentrations) is reported as “low level additivity”.

On to `Cc1cc(/N=N/c2ccc(/N=N/c3c(O)c(S(=O)(=O)O)cc4cc(S(=O)(=O)O)ccc34)cc2C)ccc1/N=N/c1ccc2cc(S(=O)(=O)O)cc(S(=O)(=O)O)c2c1` [Compound 1.004], for which the “inhibition of NOXA binding in combination” value is listed as “cooperative inhibition”. Besides, where the note is “SAR comparison”, the “increase in inhibition relative to NSC-45195” value is reported as “roughly a two-fold increase in inhibition”.
